A value given as a limit tells only on which side of the number the result lay.

The target of one experiment is Cathepsin Z (Homo sapiens) (UniProt Q9UBR2). The experiment can be described thus: Inhibition of human recombinant cathepsin X.
Cathepsin Z (Homo sapiens), sequence (Q9UBR2 whole entry, looked up): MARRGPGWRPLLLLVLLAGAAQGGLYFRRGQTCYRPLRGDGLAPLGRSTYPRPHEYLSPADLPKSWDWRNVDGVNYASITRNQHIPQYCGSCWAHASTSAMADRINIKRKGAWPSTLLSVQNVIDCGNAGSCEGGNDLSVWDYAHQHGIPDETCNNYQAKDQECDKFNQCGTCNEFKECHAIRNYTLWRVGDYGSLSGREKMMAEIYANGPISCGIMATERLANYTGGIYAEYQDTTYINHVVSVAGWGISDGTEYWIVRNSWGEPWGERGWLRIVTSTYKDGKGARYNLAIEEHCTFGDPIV
One may read the IC50 as the point on the concentration scale where inhibition reaches its midpoint. On to `O=C1O[C@@H]2CN1CC[C@@H]2OCc1ccccc1` [(1R,2S)-2-(benzyloxy)-7-oxa-5-aza-bicyclo[3.2.1]octan-6-one], for which the IC50 stood at 547 nM. The same measure, in the same setting: as for `O=C1O[C@@H]2CN1CC[C@@H]2Oc1ccccc1` [(1R,2S)-2-phenoxy-7-oxa-5-aza-bicyclo[3.2.1]octan-6-one], the figure is 326 nM; as for `S=C1O[C@@H]2CN1CC[C@@H]2Oc1ccccc1` [(1R,2S)-2-phenoxy-7-oxa-5-aza-bicyclo[3.2.1]octane-6-thione], 7150 nM; as for `CC(C)CO[C@H]1CCN2C[C@H]1OC2=O` [(1R,2S)-2-isobutoxy-7-oxa-5-aza-bicyclo[3.2.1]octan-6-one], 1100 nM.

A further experiment has the same target. The experiment in a line: Inhibition of human recombinant cathepsin X. This is another data set of the same source.
For `Cc1cccc(O[C@H]2CCN3C[C@H]2OC3=O)c1C` (relative stereo) [cis-4-(2,3-dimethylphenoxy)-6-oxa-1-aza-bicyclo[3.2.1]octan-7-one], the IC50 is 197 nM. Turning to `O=C1O[C@H]2CN1CC[C@@H]2Br` [(1S,2S)-2-bromo-7-oxa-5-aza-bicyclo[3.2.1]octan-6-one], the IC50 is over 10000 nM.

Take `Cc1cccc(O[C@H]2CCN3C[C@@H]2OC3=O)c1C` (racemic) [rac-trans4-(2,3-dimethylphenoxy)-6-oxa-1-aza-bicyclo[3.2.1]octan-7-one]: the IC50 came to 553 nM.

(Values after BindingDB's records for doi:10.1016/j.bmcl.2006.12.014 (The Genomics Institute of The Novartis Research Foundation, 2007).)
